These results are taken from patent US20100247659A1, “PHENYLPHTHALIMIDE ANALOGS FOR TREATING DIABETIC MACULAR EDEMA” (Charlesson, LLC, priority 2007, published 2010).

The structures appear in SMILES notation.

The subject of the assay is OIR rats. The experiment in a line: Retinal NV in OIR rats, fluorescein angiography. Format: in vivo, rat. An excerpt: Induction of oxygen-induced retinopathy (OIR): Induction of OIR followed the procedure as described by Smith et al (Smith, et al. Invest. Opthalmol. Vis. Sci. 1994, 35: 101-111) with some modifications. Briefly, Newborn Brown Norway (BN) rats (Charles River Laboratories) at postnatal day 7 (P7) were exposed to hyperoxia (75% O2) for 5 days (P7-12) and then returned to normoxia (room air) to induce retinopathy.
Retinal angiography with high-molecular-weight fluorescein: High molecular weight fluorescein-dextran was used in retinal angiography as described by Smith et al (Smith, et al. Invest. Opthalmol. Vis. Sci. 1994, 35:101-111). Briefly, animals were anesthetized with ketamine (100 mg/kg of body weight) plus acepromazine (5 mg/kg of body weight) and then perfused through the left ventricle with 50 mg/ml of high molecular weight fluorescein-dextran in PBS. The eyes were marked for orientation, enucleated, and fixed in 4% paraformaldeyde for 3-24 h. Several incisions were made and the retinas were flat-mounted on a gelatin-coated slide. The vasculature was then examined under a fluorescent microscope. Both the total retinal area and the area of the avascular regions were measured using a computerized image-analysis system and averaged within each group.
Newborn BN rats were exposed to 75% oxygen from age P7 to P12. […]

As to `O=C1CCC(N2C(=O)c3ccccc3C2=O)C(=O)N1` (centres unmarked) [thalidomide], under “1.0 μg/eye intravitreal, evaluated P20”, the “inhibition of retinal NV” value was “lacked significant inhibition of retinal NV”. Also, under “5 μl of 0.8 mM per eye, angiography”, the “effect on retinal NV, angiographs (FIG. 9)” value is “did not reduce the NV”.
